pIC50: −log10 of the molar value. Each block holds one compound with its values, some of them ahead of it.
Legend:
arteria saphena = assay: Vasorelaxant action in vitro (phenylephrine-contracted arteria saphena rings); type: cell-based, Rabbits; details: Oryctolagus cuniculus; rabbit arteria saphena rings, contraction induced by phenylephrine; concentration reducing contraction to 50%
Method: Rabbits are anesthetized by intravenous injection of thiopental sodium […] (about 50 mg/kg) and exsanguinated. The arteria saphena is removed and divided into 3 mm wide rings. The rings are individually mounted on in each case one triangular pair of hooks, open at the end, made of 0.3 mm strong special wire (Remanium®). Under a pretension, each ring is transferred into 5 ml organ baths containing a warm, carbogen-aerated Krebs-Henseleit solution at 37° C. having the following composition (mM): NaCl: 119; KCl: 4.8; CaCl2×2 H2O: 1; MgSO4×7 H2O: 1.4; KH2PO4: 1.2; NaHCO3: 25; glucose: 10; bovine serum albumin: 0.001%. The contractility is detected using Statham UC2 cells, amplified and digitalized by means of A/D converters (DAS-1802 HC, Keithley Instruments Munich), and recorded in parallel on linear recorders. Contractions are induced by addition of phenylephrine.
After several (in general 4) control cycles, the substance to be investigated is added in each further passage in increasing dosage, and the height of the contraction achieved under the influence of the test substance is compared with the height of the contraction achieved in the last preliminary passage. From this, the concentration which is necessary in order to reduce the contraction achieved in the preliminary control to 50% (IC50) is calculated. The standard administration volume is 5 μl. The proportion of DMSO in the bath solution corresponds to 0.1%.

Heme-free sGC = target: T1, Heme-free sGC (Rattus norvegicus, UniProt P20595); assay: Stimulation of recombinant soluble guanylate cyclase (sGC) in vitro, heme-free enzyme; type: biochemical; details: heme-free (Tween 20 0.5%)
T1 construct: made in house; host or cells: Sf9 insect cells (baculovirus)
T1 sequence (P19686 whole entry partner): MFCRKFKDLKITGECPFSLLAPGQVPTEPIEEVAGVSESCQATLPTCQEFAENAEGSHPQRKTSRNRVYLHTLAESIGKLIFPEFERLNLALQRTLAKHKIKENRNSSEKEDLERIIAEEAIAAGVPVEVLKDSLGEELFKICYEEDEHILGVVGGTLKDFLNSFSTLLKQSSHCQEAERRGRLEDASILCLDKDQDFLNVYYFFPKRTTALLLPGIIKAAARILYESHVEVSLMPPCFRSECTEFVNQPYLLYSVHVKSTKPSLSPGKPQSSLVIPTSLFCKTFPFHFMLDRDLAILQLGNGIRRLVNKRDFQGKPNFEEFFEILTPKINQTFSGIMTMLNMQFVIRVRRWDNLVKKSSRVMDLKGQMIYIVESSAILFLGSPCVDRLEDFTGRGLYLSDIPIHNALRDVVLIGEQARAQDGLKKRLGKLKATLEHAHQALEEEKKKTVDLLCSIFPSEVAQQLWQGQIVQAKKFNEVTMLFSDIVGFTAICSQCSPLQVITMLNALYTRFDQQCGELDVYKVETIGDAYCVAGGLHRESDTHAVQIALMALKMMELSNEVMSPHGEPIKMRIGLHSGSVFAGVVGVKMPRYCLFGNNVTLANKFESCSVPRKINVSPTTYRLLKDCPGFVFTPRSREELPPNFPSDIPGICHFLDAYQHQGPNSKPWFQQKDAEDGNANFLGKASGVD
T1 sequence (P20595 whole entry): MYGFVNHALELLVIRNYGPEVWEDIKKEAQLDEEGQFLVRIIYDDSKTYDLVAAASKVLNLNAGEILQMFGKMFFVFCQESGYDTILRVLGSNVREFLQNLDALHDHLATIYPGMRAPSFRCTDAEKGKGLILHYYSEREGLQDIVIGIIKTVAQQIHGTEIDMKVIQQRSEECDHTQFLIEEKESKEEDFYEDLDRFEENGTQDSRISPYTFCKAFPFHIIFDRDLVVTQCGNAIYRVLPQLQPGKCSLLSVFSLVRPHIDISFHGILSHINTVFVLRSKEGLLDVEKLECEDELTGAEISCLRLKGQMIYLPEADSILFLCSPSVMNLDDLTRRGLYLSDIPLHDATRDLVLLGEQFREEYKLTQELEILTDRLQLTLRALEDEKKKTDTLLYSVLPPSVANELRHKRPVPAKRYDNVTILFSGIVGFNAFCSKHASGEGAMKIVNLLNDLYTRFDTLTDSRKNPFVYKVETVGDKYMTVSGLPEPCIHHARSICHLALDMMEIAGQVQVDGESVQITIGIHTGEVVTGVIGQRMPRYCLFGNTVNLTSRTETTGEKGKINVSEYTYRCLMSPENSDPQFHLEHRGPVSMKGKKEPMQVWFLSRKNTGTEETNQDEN
Method: (§1) The investigations on the stimulation of recombinant soluble guanylate cyclase (sGC) and the compounds according to the invention with and without sodium nitroprusside and with and without the heme-dependent sGC inhibitor 1H-1,2,4-oxadiazole-(4,3a)-quinoxalin-1-one (ODQ) were carried out by the method described in detail in the following literature reference: M. Hoenicka, E. M. Becker, H. Apeler, T. Sirichoke, H. Schroeder, R. Gerzer and J.-P. Stasch: Purified soluble guanylyl cyclase expressed in a baculovirus/Sf9 system: stimulation by YC-1, nitric oxide, and carbon oxide. J. Mol. Med. 77 (1999): 14-23.
Heme-free guanylate cyclase was obtained by adding Tween 20 to the sample buffer (final concentration 0.5%).
(§2) Activation of sGC by a test substance is stated as n-fold stimulation of basal activity.

Heme-containing sGC = target: T2, Heme-containing sGC (Rattus norvegicus, UniProt P20595); assay: Stimulation of recombinant soluble guanylate cyclase (sGC) in vitro, heme-containing enzyme; type: biochemical; details: for Stimulation (n-fold) Heme-containing sGC Basal: n-fold stimulation of basal activity
T2 construct: made in house; host or cells: Sf9 insect cells (baculovirus)
T2 sequence (P19686 whole entry partner): as the sequence (P19686 whole entry partner) above
T2 sequence (P20595 whole entry): as the sequence (P20595 whole entry) above
Method: as §1, §2

SMILES: O=C(O)CCCCC(/C=C/c1ccccc1OCc1ccc(-c2csc(C(F)(F)F)n2)cc1)Cc1ccc(C(=O)O)cc1 (stereo not shown) [Example 81]
pIC50 (arteria saphena): 8.41

SMILES: O=C(O)CSCCC(/C=C/c1ccccc1OCCCCCc1ccccc1)Cc1ccc(C(=O)O)cc1 (stereo not shown) [Example 164]
pIC50 (arteria saphena): 6.24

SMILES: O=C(O)CCCCC(CNc1ccccc1OCCCCCc1ccccc1)Cc1ccc(C(=O)O)cc1 (stereo not shown) [Example 150]
pIC50 (arteria saphena): 7.52

SMILES: O=C(O)CCCCC(/C=C/c1ccccc1NCc1ccccc1)Cc1ccc(C(=O)O)cc1 (stereo not shown) [Example 30]
pIC50 (arteria saphena): 5.46

SMILES: O=C(O)CCCCC(/C=C/c1cccnc1OCCCCCc1ccccc1)Cc1ccc(C(=O)O)cc1 (stereo not shown) [Example 34]
pIC50 (arteria saphena): 6.77

SMILES: O=C(O)CCCCC(COCc1cccc(Oc2ccccc2F)c1)Cc1ccc(C(=O)O)cc1 (stereo not shown) [Example 132]
pIC50 (arteria saphena): 6.66

SMILES: CCCCCCCCOc1ccccc1/C=C/C(CCCCC(=O)O)Cc1ccc(C(=O)O)cc1 (stereo not shown) [Example 29]
pIC50 (arteria saphena): 8.60

SMILES: O=C(O)CCCC[C@@H](CCc1ccccc1OCc1ccc(C2CCCCC2)cc1)Cc1ccc(C(=O)O)cc1 [Example 93]
pIC50 (arteria saphena): 9.70 | Stimulation (n-fold) Heme-free sGC +ODQ (10 μM) (Heme-free sGC; 0.1 μM test compound): 392 n-fold | Stimulation (n-fold) Heme-free sGC Basal (Heme-free sGC; 0.1 μM test compound): 436 n-fold | Stimulation (n-fold) Heme-free sGC +ODQ (10 μM) (Heme-free sGC; 1.0 μM test compound): 435 n-fold | Stimulation (n-fold) Heme-free sGC Basal (Heme-free sGC; 1.0 μM test compound): 476 n-fold | Stimulation (n-fold) Heme-free sGC +ODQ (10 μM) (Heme-free sGC; 10 μM test compound): 500 n-fold | Stimulation (n-fold) Heme-free sGC Basal (Heme-free sGC; 10 μM test compound): 541 n-fold | Stimulation (n-fold) Heme-containing sGC +ODQ (10 μM) (Heme-containing sGC; 0.1 μM test compound): 84 n-fold | Stimulation (n-fold) Heme-containing sGC +SNP (0.1 μM) (Heme-containing sGC; 0.1 μM test compound): 45 n-fold | Stimulation (n-fold) Heme-containing sGC Basal (Heme-containing sGC; 0.1 μM test compound): 17 n-fold | Stimulation (n-fold) Heme-containing sGC +ODQ (10 μM) (Heme-containing sGC; 1.0 μM test compound): 151 n-fold | Stimulation (n-fold) Heme-containing sGC +SNP (0.1 μM) (Heme-containing sGC; 1.0 μM test compound): 44 n-fold | Stimulation (n-fold) Heme-containing sGC Basal (Heme-containing sGC; 1.0 μM test compound): 23 n-fold | Stimulation (n-fold) Heme-containing sGC +SNP (0.1 μM) (Heme-containing sGC; 10 μM test compound): 54 n-fold | Stimulation (n-fold) Heme-containing sGC Basal (Heme-containing sGC; 10 μM test compound): 33 n-fold | Stimulation (n-fold) Heme-containing sGC +ODQ (10 μM) (Heme-containing sGC): 178 n-fold

Second part, the compound after the results:

pIC50 (arteria saphena): 6.72
SMILES: O=C(O)CCCCC(/C=C/c1ccccc1OCCCCCN1CCCC1)Cc1ccc(C(=O)O)cc1 (stereo not shown) [Example 116]

pIC50 (arteria saphena): 9.70
SMILES: O=C(O)CCCCC(/C=C/c1ccccc1OCc1ccc(C2CCCCC2)cc1)Cc1ccc(C(=O)O)cc1 (stereo not shown) [Example 72]

pIC50 (arteria saphena): 8.24
SMILES: O=C(O)CCCCC(/C=C/c1ccccc1OCc1cc2ccccc2s1)Cc1ccc(C(=O)O)cc1 (stereo not shown) [Example 78]

pIC50 (arteria saphena): 8.72
SMILES: O=C(O)CCCCC(/C=C/c1ccccc1OCc1ccc(-c2ccccc2)cc1)Cc1ccc(C(=O)O)cc1 (stereo not shown) [Example 26]

pIC50 (arteria saphena): 8.28
SMILES: Cc1cc(COc2ccccc2/C=C/C(CCCCC(=O)O)Cc2ccc(C(=O)O)cc2)nn1-c1cc(Cl)cc(Cl)c1 (stereo not shown) [Example 76]
